Data taken from patent publication US10166237B2, “Compounds and methods for inducing chondrogenesis” (The Scripps Research Institute, priority 2011, dated 2019).

Test system: human mesenchymal stem cells (hMSCs)
Assay: chondrogenic nodule formation by hMSCs (high throughput screen)
Assay type: cell-based
Conditions: not given
Method: The primary screening assay was based upon the development of chondrogenic nodules. Chondrocytes can grow in monolayer in vitro, but to more closely mimic their native environment in the joint, the cells are routinely cultured in non-adherent conditions such as in pellet cultures or alginate bead suspensions.
In the actual screen of a library of 22,000 structurally diverse heterocycles, 10^4 primary hMSCs were plated in 384 well plates in serum free DMEM. The cells were treated with 5 μM of each compound and incubated for 4 days. […] To facilitate high throughput imaged-based detection, the chondrogenic nodules were stained with […]. The Nile Red stained nodules were quantified on an Acumen eX3 (high content imaging device) by excitation with a 488 laser for rapid detection of the nodules.
Primary hMSCs grown in a 96 well Greiner plates (50,000/well) were incubated for 4 days in the presence of the 5 uM of each DMSO or 100 nM of PRO1. On day 4, the cells were fixed with 4% formalin for 10 minutes, washed and stained with 1 μg/ml of Rhodamine B for 2 hours at room temperature.

Structure (SMILES)	Activity (chondrogenic nodules formed in % of cells)
CNCc1cccc(NC(=O)c2ccccc2C(=O)O)c1 [Compound N24]	*** (chondrogenic nodules formed in at least 50% but less than 75% of cells)
CC(=O)c1ccccc1C(=O)Nc1ccc(C#N)cc1 [Compound A09]	** (chondrogenic nodules formed in at least 25% but less than 50% of cells)
N#Cc1ccc(C(=O)NCc2ccccc2C(=O)O)cc1 [MS11]	** (chondrogenic nodules formed in at least 25% but less than 50% of cells)
N#Cc1ccc(CNC(=O)c2ccccc2C(=O)O)cc1 [MS06]	** (chondrogenic nodules formed in at least 25% but less than 50% of cells)
N#Cc1ccc(NC(=O)c2ccc(C#N)cc2C(=O)O)cc1 [Compound B02]	** (chondrogenic nodules formed in at least 25% but less than 50% of cells)
NC(=O)c1cccc(NC(=O)c2ccccc2C(=O)O)c1 [Compound N11]	** (chondrogenic nodules formed in at least 25% but less than 50% of cells)
CNS(=O)(=O)c1ccccc1C(=O)Nc1ccc(C#N)cc1 [Compound A24]	** (chondrogenic nodules formed in at least 25% but less than 50% of cells)
O=C(O)c1ccccc1C(=O)Nc1ccccc1OC(F)F [Compound N04]	*** (chondrogenic nodules formed in at least 50% but less than 75% of cells)
O=C(O)c1ccccc1C(=O)Nc1nc(-c2ccccc2)cs1 [Compound N39]	** (chondrogenic nodules formed in at least 25% but less than 50% of cells)
O=C(O)c1ccccc1C(=O)NCC1CCC(C(=O)O)CC1 (stereo not shown) [Compound N33]	** (chondrogenic nodules formed in at least 25% but less than 50% of cells)
N#Cc1ccc(NC(=O)c2ccccc2NC(N)=O)cc1 [Compound A12]	** (chondrogenic nodules formed in at least 25% but less than 50% of cells)
N#Cc1ccc(NC(=O)c2ccccc2S(=O)(=O)O)cc1 [Compound A22]	** (chondrogenic nodules formed in at least 25% but less than 50% of cells)
O=C(O)c1ccccc1C(=O)Nc1cnccn1 [Compound N52]	** (chondrogenic nodules formed in at least 25% but less than 50% of cells)
CC(=O)c1ccc(NC(=O)c2ccccc2C(=O)O)cc1 [Compound N09]	** (chondrogenic nodules formed in at least 25% but less than 50% of cells)
N#Cc1ccc(NC(=O)c2cc(C#N)ccc2C(=O)O)cc1 [Compound B03, sodium 4-cyano-2-[(4-cyanophenyl)carbamoyl]benzoate]	*** (chondrogenic nodules formed in at least 50% but less than 75% of cells)
O=C(O)c1ccccc1C(=O)Nc1ccc(-c2ncc[nH]2)cc1 [PM18]	** (chondrogenic nodules formed in at least 25% but less than 50% of cells)
O=C(O)c1ccccc1C(=O)Nc1ccc(-c2nn[nH]n2)cc1 [PA06]	*** (chondrogenic nodules formed in at least 50% but less than 75% of cells)
O=C(O)c1ccccc1C(=O)Nc1ccc(P(=O)(O)O)cc1 [PA08]	** (chondrogenic nodules formed in at least 25% but less than 50% of cells)
COC(=O)Nc1ccccc1C(=O)Nc1ccc(C#N)cc1 [Compound A11]	** (chondrogenic nodules formed in at least 25% but less than 50% of cells)
N#Cc1ccc(NC(=O)c2ccccc2-c2ccccc2C(=O)O)cc1 [Compound B32]	** (chondrogenic nodules formed in at least 25% but less than 50% of cells)
N#Cc1ccc(C(=O)CC2OC(=O)c3ccccc32)cc1 (stereo not shown) [MS17-1]	*** (chondrogenic nodules formed in at least 50% but less than 75% of cells)
COC(=O)NCc1ccc(NC(=O)c2ccccc2C(=O)O)cc1 [PM11]	** (chondrogenic nodules formed in at least 25% but less than 50% of cells)
N#Cc1ccc(S(=O)(=O)Nc2ccccc2C(=O)O)cc1 [Compound R07]	** (chondrogenic nodules formed in at least 25% but less than 50% of cells)
O=C(O)c1ccc(C(=O)CC2OC(=O)c3ccccc32)cc1 (stereo not shown) [MS18-1]	** (chondrogenic nodules formed in at least 25% but less than 50% of cells)
O=C(O)c1ccccc1C(=O)Nc1ccc(N2CCOCC2)cc1 [Compound N28]	** (chondrogenic nodules formed in at least 25% but less than 50% of cells)
N#Cc1ccc(NC(=O)c2ccccc2C#N)cc1 [Compound A01]	** (chondrogenic nodules formed in at least 25% but less than 50% of cells)
O=C(NO)c1ccc(NC(=O)c2ccccc2C(=O)O)cc1 [PA02]	** (chondrogenic nodules formed in at least 25% but less than 50% of cells)
O=C(Cc1ccc(C(=O)O)cc1)Nc1ccccc1C(=O)O [MS14]	** (chondrogenic nodules formed in at least 25% but less than 50% of cells)
O=C(O)c1ccccc1C(=O)Nc1ccc(CCO)cc1 [Compound N26]	*** (chondrogenic nodules formed in at least 50% but less than 75% of cells)
O=C(O)c1ccc(/C=C/C(=O)c2ccccc2C(=O)O)cc1 [MS16]	** (chondrogenic nodules formed in at least 25% but less than 50% of cells)

Same assay, conditions: Homo sapiens, Mesenchymal stem cells; first value of the cell (before the slash); read-out: CHONDROGENIC μM EC50

EC50	Structure (SMILES)
> 10 µM	O=C(O)c1ccccc1C(=O)Nc1nnc(-c2ccccc2)s1 [LK57, 2-((5-phenyl-1,3,4-thiadiazol-2-yl)carbamoyl)benzoic acid]
